How the values were obtained:
B. subtilis 168 = assay: Bliss interaction score (quartile over a dose matrix) (fitness difference); higher = more antagonism (negative = synergy); conditions: main component drawn
Procedure, shortened: (§1)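 The Bliss score is observed minus expected fitness, where expected fitness is the product of the single-drug fitness values inferred from the combination data. Fitness is the OD595 at the onset of stationary phase over the plate's robust no-drug mean, capped at 1. Scores are summarised by quartiles over technical, biological and donor/recipient replicates.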

S. aureus DSM 20231 [1] = assay: as above; conditions: main component drawn
Procedure, shortened: as §1

S. pneumoniae D39V = assay: as above; conditions: main component drawn
Procedure, shortened: as §1

S. aureus Newman [2] = assay: as above; conditions: main component drawn
Procedure, shortened: as §1

S. aureus DSM 20231 [3] = assay: fitness (endpoint OD595 vs no drug) (fraction); higher = more growth; conditions: main component drawn
Procedure, shortened: (§2)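 Fitness was defined as the optical density at the transition into stationary phase relative to the robust mean of no-drug control wells. Values were capped at 1. Cultures were started at OD595 0.01 in 384-well plates (30 µl, or 55 µl for S. pneumoniae) in TSB, LB Lennox or CY at 37 °C. OD595 was recorded every 30 min over 14 h, with the first reading subtracted as background.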

S. aureus Newman [4] = assay: as above; conditions: one replicate, main component drawn
Procedure, shortened: as §2
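Throughout, for Bliss interaction score (quartile over a dose matrix): first quartile when negative (synergy) and third quartile when positive (antagonism).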

CCCCCCCCCC(=O)N[C@H]1[C@H](Oc2c3cc4cc2Oc2ccc(cc2Cl)[C@@H](O[C@@H]2O[C@H](CO)[C@@H](O)[C@H](O)[C@H]2NC(C)=O)[C@@H]2NC(=O)[C@H](NC(=O)[C@@H]4NC(=O)[C@H]4NC(=O)[C@@H](Cc5ccc(c(Cl)c5)O3)NC(=O)[C@H](N)c3ccc(O)c(c3)Oc3cc(O)cc4c3)c3ccc(O)c(c3)-c3c(O[C@H]4O[C@H](CO)[C@@H](O)[C@H](O)[C@@H]4O)cc(O)cc3[C@@H](C(=O)O)NC2=O)O[C@H](CO)[C@@H](O)[C@@H]1O [Teicoplanin] + CC1=C\[C@@H](O)CC(=O)Cc2nc(co2)C(=O)N2CCC=C2C(=O)O[C@H](C(C)C)[C@H](C)/C=C/C(=O)NC\C=C\1 [Virginiamycin M1]
Conditions	Bliss interaction score
B. subtilis 168	0.117
S. aureus DSM 20231 [1]	0.101
S. aureus Newman [2]	0.0746
S. pneumoniae D39V	0.262

fitness
Conditions	first compound 0.1562 µg/mL	first compound 0.3125 µg/mL	first compound 0.62 µg/mL	first compound 0.625 µg/mL	first compound 1.24 µg/mL	first compound 2.48 µg/mL
S. aureus DSM 20231 [3], partner 0.0625 µg/mL	0.996	≥ 1	–	≥ 1	–	–
S. aureus DSM 20231 [3], partner 0.125 µg/mL	≥ 1	≥ 1	–	≥ 1	–	–
S. aureus DSM 20231 [3], partner 0.25 µg/mL	≥ 1	≥ 1	–	≥ 1	–	–
S. aureus Newman [4], partner 0.0625 µg/mL	≥ 1	0.97	0.773	0.843	0.78	0.473
S. aureus Newman [4], partner 0.125 µg/mL	≥ 1	≥ 1	0.784	0.774	0.764	0.529
S. aureus Newman [4], partner 0.25 µg/mL	≥ 1	≥ 1	0.831	0.839	0.766	0.486
S. aureus Newman [4], partner 0.5 µg/mL	0.945	0.989	–	≥ 1	–	–
S. aureus Newman [4], partner 1 µg/mL	≥ 1	0.971	–	≥ 1	–	–
S. aureus Newman [4], partner 2 µg/mL	0.876	0.951	–	≥ 1	–	–

fitness, S. aureus DSM 20231 [3], one replicate
Conditions	first compound 0.1562 µg/mL	first compound 0.3125 µg/mL	first compound 0.625 µg/mL
partner 0.5 µg/mL	≥ 1	≥ 1	≥ 1
partner 1 µg/mL	0.864	0.861	≥ 1

— the supplement of paper PMC10627819
